Experimental data published in publication PMC8622152, “Expression Profile and Ligand Screening of a Putative Odorant-Binding Protein, AcerOBP6, from the Asian Honeybee” (Insects, 2021).
“Also recorded” adds a separate entry of the source. Read-outs that look alike come from different tables or passages of the source.

Legend:
[1] = system: antennae of forager bees; assay: EAG assay based on RNAi (dsOBP6 feeding); design: species or system Apis cerana cerana; settings: for change of EAG response in dsOBP6 group versus controls: 48 h after feeding dsOBP6-2 dsRNA, p < 0.05
Protocol: The plasmid extracted in Section 2.3 was used as a template to generate 2 dsRNA fragments of AcerOBP6. Meanwhile, dsRNA was synthesized using a T7 RiboMAX™ Express RNAi System (Promega, Madison, WI, USA); the primers used for dsRNA generating are listed in Table S1. The final concentration of dsRNA generation was diluted to 2.5 μg/μL. The concentration and integrity of dsRNA were determined using NanoDrop and agarose gel electrophoresis (1%). Forager bees were collected and fed with AcerOBP6 dsRNA (8 μg for each bee), and then maintained in an artificial climate incubator (65–75% RH; 28 ± 0.4 °C). At the same time, the GFP dsRNA and 30% sugar were employed as the control groups. Each experiment group included 30 bees, and 3 biological repeats were performed. At times of 24, 48, and 96 h after feeding, the RNAi effects were verified by qRT-PCR.
The antennae of forager bees were dissected from the bottom and immediately fixed to both sides of a two-pronged electrode using Spectra 360 electrode gel (Parker Laboratories Inc., Fairfield, NJ, USA). The odorants were dissolved in liquid paraffin to final concentrations of 300 μg/μL, and liquid paraffin was adopted as a blank control. A filter paper strip (3 cm × 1cm) filled with 10 μL tested solution was prepared and put into the tube of Pasteur Pipette, which was connected with the gas feeder equipment. The stimulation time of each odor was 0.5 s and the interval was 30 s. Three technical repetitions were carried out, and ten antennae of female adults were tested for each compound. Finally, the EAGPro software (Syntech) was used to analyze the EAG response recordings.

[2] = molecular target: AcerOBP6 (Apis cerana cerana, UniProt A0A2A3ES84); format: binding; settings: for binding affinity with AcerOBP6 (in words): competitive binding with 1-NPN, ligand up to 10 µM; for Ki: Ki = [IC50]/(1 + [1-NPN]/K1-NPN), read-out: Ki (dissociation constant); for Ki / IC50: AcerOBP6 1 µM, 1-NPN 1 µM; for IC50: concentration of ligand displacing 50% 1-NPN, ligand 1-10 µM, short dash: not possible to calculate the IC50 value
Protocol: Afterwards, the fluorescent probe N-phenyl-1-naphthylamine (1–NPN) was dissolved in methanol to yield a 1 mM stock solution. […] The binding constant of 1-NPN to AcerOBP6 (K1–NPN) was calculated using Scatchard plots of the binding data in GraphPad Prism 8.0.
Taking 1–NPN as the fluorescent reporter, we measured the binding affinity of each odorant by competitive binding assays using. All the 33 ligands (listed in Table S2) were dissolved in spectrally pure grade methanol. We titrated the odorants in a solution containing AcerOBP6 protein (1 μM) and 1–NPN (1 μM) to the final concentrations of 1–10 μM, respectively.

Chain of AcerOBP6 (A0A2A3ES84 entry or part of it): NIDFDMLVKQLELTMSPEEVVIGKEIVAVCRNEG

IC50 [2]	Compound	change of EAG response in dsOBP6 group versus controls [1]	binding affinity with AcerOBP6 (in words) [2]	also measured
	CCCCCCCCCO [1-Nonanol]	significantly decreased		
	CCCCCC(C)=O [2-Heptanone]	significantly decreased; also recorded: significant change		EAG response of worker bee antennae ([1]; odorant 300 µg/µL in liquid paraffin, 10 µL on filter paper, 0.5 s stimulation): strongest response; also recorded: strong EAG responses
	CCOC(=O)/C=C/c1ccccc1 [Ethyl cinnamate]		could not bind or had a weak binding affinity	
	CCCCC/C=C\C/C=C\CCCCCCCC(=O)OCC [Ethyl linoleate]		could not bind or had a weak binding affinity	
	CCCCCCCC/C=C\CCCCCCCC(=O)OCC [Ethyl oleate]		could not bind or had a weak binding affinity	
3.93 µM	CCOC(=O)/C=C/c1ccccc1 [Ethyl-trans-cinnamate]			Ki ([2]; listed as ethyl-trans-cinnamate): 3.7 µM; Ki [2]: 3.74 µM
	CC12CCC(CC1)C(C)(C)O2 [Eucalyptol]	significantly decreased		
	CC(=O)OCCC(C)C [Isoamyl acetate]		could not bind or had a weak binding affinity	
	C=CC(C)(O)CCC=C(C)C (centres unmarked) [Linalool]	significantly decreased		
	CC/C=C\C/C=C\C/C=C\CCCCCCCC(=O)OC [Methyl linolenate]		could not bind or had a weak binding affinity	
	CCCCCCCC/C=C\CCCCCCCC(=O)OC [Methyl oleate]		could not bind or had a weak binding affinity	
> 10 µM	CCCCCCCCCCCCCCCC(=O)OC [Methyl palmitate]		could not bind or had a weak binding affinity	
	CCCCCCCCCCCCCCCCCC(=O)OC [Methyl stearate]		could not bind or had a weak binding affinity	
	C=CC(=C)CCC=C(C)C [Myrcene]	significantly decreased		
	CCCCCCOC(C)=O [hexyl acetate]	significantly decreased		
> 10 µM	C/C1=C\CC/C(C)=C/CC(C)(C)/C=C/C1 [α-caryophllene]		could not bind or had a weak binding affinity	
> 10 µM	C=C/C(C)=C/C/C=C(\C)CCC=C(C)C [α-farnesene]		could not bind or had a weak binding affinity	
5.54 µM	C=C/C(C)=C/CC=C(C)C [β-ocimene]	significantly decreased		Ki [2]: 5.27 µM

Compound	IC50 [2]	change of EAG response in dsOBP6 group versus controls [1]	binding affinity with AcerOBP6 (in words) [2]	also measured
CC/C=C\C/C=C\C/C=C\CCCCCCCC(=O)OCC [α-ethyl linolenic]	> 10 µM		could not bind or had a weak binding affinity	
(+) -Cinene	5.53 µM	significantly decreased		Ki [2]: 5.26 µM
-Ionone	5.45 µM			Ki [2]: 5.18 µM
-Pinene	6.67 µM			Ki [2]: 6.35 µM
